Test results as given in PMC11735596, “Sulfoquinovosyl diacylglycerol, a component of Holy Basil Ocimum tenuiflorum, inhibits the activity of the SARS-CoV-2 main protease and viral replication in vitro” (Journal of Natural Medicines, 2024).
Values joined by “and” are separate entries in the source; they are usually repeats but may differ in a detail not shown here. Equal values may be shown once.

Experiments:
in vitro = settings: African green monkey
[1] = test system: SARS-CoV-2 (WK-521 strain); assay: Anti-SARS-CoV-2 assay in infected VeroE6/TMPRSS2 cells (tetrazolium dye method); settings: for Protection of infected cells from virus-induced cell death (in words): MOI 0.002, 3 days
[2] = test system: SARS-CoV-2 spike S1 and ACE2; parameters: method as in PMID 34677731; settings: cited from earlier work

Structure (SMILES)	Cytotoxicity (in words) (VeroE6/TMPRSS2 cells)	CC50 (in vitro)	Protection of infected cells from virus-induced cell death (in words) [1]	EC50 ([1]; read-out: EC50, suppression of SARS-CoV-2 replication, MOI 0.002, 3 days)	Effect on interaction between SARS-CoV-2 spike S1 and ACE2 (in words) [2]
CC/C=C\C/C=C\C/C=C\CCCCCCCC(=O)OC[C@H](CO[C@H]1O[C@H](CS(=O)(=O)O)[C@@H](O)[C@H](O)[C@H]1O)OC(=O)CCCCCCC/C=C\C/C=C\C/C=C\CC [Compound 1, 1,2-di-(9Z,12Z,15Z-octadecatrienoyl)-3-(6′-sulfo-α-D-quinovosyl)-sn-glycerol]	did not show apparent cytotoxicity	> 100 µM	dose-dependent protection	51.2 µM and 51 µM	–
CC/C=C\C/C=C\C/C=C\CCCCCCCC(=O)OC[C@H](CO[C@@H]1O[C@H](CO[C@H]2O[C@H](CO)[C@H](O)[C@H](O)[C@H]2O)[C@H](O)[C@H](O)[C@H]1O)OC(=O)CCCCCCC/C=C\C/C=C\C/C=C\CC [Compound 2, 1,2-di-(9Z,12Z,15Z-octadecatrienoyl)-3-O-(α-D-galactosyl-1-6-β-D-galactosyl)-sn-glycerol]	–	–	inhibited cell death caused by SARS-CoV-2 in a concentration-dependent manner	–	–
CC/C=C\C/C=C\C/C=C\CCCCCCCC(=O)OC [Compound 5, Methyl linolenate, reference compound]	–	–	inhibited cell death caused by SARS-CoV-2 in a concentration-dependent manner	–	–
C=CCc1ccc(O)c(OC)c1 [eugenol]	–	–	–	–	inhibited the interaction between SARS-CoV-2 spike S1 and ACE2
